Reference: PMC5614969, “High-Affinity Functional Fluorescent Ligands for Human β-Adrenoceptors” (Scientific Reports, 2017)
Values joined by “and” are separate entries in the source; they are usually repeats but may differ in a detail not shown here. Equal values may be shown once. “Also recorded” adds a separate entry of the source.

Key:
[1] = pH dependence of ligand fluorescence; format: physicochemical
Description: pH dependence of βAR ligands fluorescence were recorded on a multiwell plate reader Spark 20 M (Tecan) in 96-well glass bottom plates (MatTek Corporation; Cat. No. PBK96G-1.5-5-F) in PBS solutions (pH 4.7–8.0) at room temperature (25 °C). The 100x stock solutions of ligands were prepared in DMSO.

β2AR [2] = target: T1, β2AR (Homo sapiens, UniProt P07550); assay: Staining and competitive binding in CAPAN-1 cells at endogenous β2AR expression; format: cell-based; conditions: 100 nM probe (5 nM ab118171) with 10 µM BI-167107 or carazolol
Description: To study the selectivity of β2AR staining at the endogenous expression levels, which are much lower compared to those in transiently β2AR expressing U2OS cells, we tested the performance of BI-167107 probes in pancreatic CAPAN-1 cells (Fig. 7c–f). […] Low density of β2AR in the plasma membrane of CAPAN-1 cells allowed us to measure of the lateral resolution in the STED images. When the cells were incubated with 100 nM BI-PEG-KK114 (18) ligand, we observed two-fold improvement in the resolution resulting in apparent structures of ~100 nm (Fig. 7d; Supplementary Table 4).
For staining of CAPAN-1 cells, fluorescent probes or mixtures of a probe and a competitor were incubated in McCoy’s 5a Medium Modified supplemented with 10% fetal bovine serum (FBS) for 30–40 min at room temperature. Afterwards, the samples were washed two times with HBSS, and cells were imaged in DMEM (Thermo Fisher Scientific) supplemented with GlutaMAX-1 (Thermo Fisher Scientific) and 10% fetal bovine serum (FBS). Imaging performed on Leica SP8 (Leica Microsystems) or Abberior STED (Abberior Instruments GmbH) microscopes.

β2AR-YFP fusion protein [3] = target: T2, β2AR-YFP fusion protein (Homo sapiens, UniProt P07550); assay: Confocal imaging of living U2OS cells expressing β2AR-YFP (staining, internalization, competitive displacement, no-wash); format: cell-based; conditions: for Receptor internalization / Staining performance: U2OS cells expressing β2AR-YFP; for Staining performance: 610CP ligands at 1.9 µM (19) and 2.5 µM (16)
T2 construct: host or cells: U2OS
Description: U2OS cells (ATCC) were cultured in high-glucose DMEM (Dulbecco’s Modified Eagle medium, Thermo Fisher Scientific) supplemented with GlutaMAX-1 (Thermo Fisher Scientific) and 10% fetal bovine serum (FBS) (Thermo Fisher Scientific) in a humidified 5% CO2 incubator at 37 °C. CAPAN-1 cells (ATCC) were cultured in McCoy’s 5a Medium Modified supplemented with 10% fetal bovine serum (FBS) (Thermo Fisher Scientific) in a humidified 5% CO2 atmosphere at 37 °C. Cells were split every 3–5 days or at confluence. Cells were seeded in glass bottom 12-well plates (MatTek Corporation). […] We used 200,000 cells per well, 3 µg plasmid DNA and 3 µl of Lipofectamine 2000.
We performed imaging 48–72 h after transfection. Staining of the transfected cell was performed in Hanks’ balanced salt solution (HBSS, Lonza) without Phenol Red for 30–40 min at room temperature (to minimize internalization). Samples were washed two times with HBSS, and cells were imaged in DMEM (Thermo Fisher Scientific) supplemented with GlutaMAX-1 (Thermo Fisher Scientific) and 10% fetal bovine serum (FBS). For all staining experiments with cells, stock solutions of dyes in DMSO were used, and final DMSO content was < 0.5%. Imaging was performed on Leica SP8 (Leica Microsystems) or Abberior STED (Abberior Instruments GmbH) microscopes.
Competitive displacement experiment was performed in living U2OS cells expressing β2AR-YFP fusion protein.
Confocal imaging was performed on a Leica SP8 (Leica Microsystems, Mannheim, Germany) inverted confocal microscope equipped with an HC PL APO CS2 63x/1.40 Oil objective. Images were acquired using a 700 Hz bidirectional scanner, pixel size of 70 nm × 70 nm, pinhole of 95.6 µm diameter(1 AU) and frame averaging of 2.

β2AR [4] = target: T1, β2AR; assay: cAMP FRET sensor (TEpacVV) agonist assay in HEK 293 cells; format: cell-based; conditions: HEK 293 expressing 3′,5′-cAMP FRET sensor, 30 min incubation, room temperature; for EC50: read-out: EC50 (mean ± SD)
Description: Upon cAMP binding, the sensor undergoes a conformational change resulting in a decrease of the FRET efficiency between two fluorescent proteins: mTurquoise - a version of cyan fluorescent protein (CFP) as the donor, and yellow fluorescent protein (YFP) as the acceptor (Fig. 3a).
The intracellular cyclic adenosine monophosphate (cAMP) levels were determined with HEK 293 cells expressing a 3′,5′-cAMP FRET sensor. The cells were a generous gift from Ruud Hovius from École poly-technique fédérale de Lausanne (EPFL). The cAMP production induces a conformational switch in ^TEpac^VV and causes a decrease in FRET efficiency, i.e. a decreased energy transfer between the two fluorescent proteins (donor mTurquoise and acceptor YFP)[32].
(§1) The culture was maintained by subculturing the cells every 4 to 5 days using the standard trypsinization procedure. Before measurements, cells were trypsinated and transferred in a 96-well glass bottom plate (MatTek Corporation; Cat. No. P96GC-1.5–5-F) to contain 10,000–30,000 cells per well in 200 µL of DMEM media. After 24 h incubation in 5% CO2 at 37 °C, the cells were washed with HBSS pH 7.2 (200 µL), and the wells were filled with 200 µL HBSS. The DMSO stock solutions of the fluorescent probes were diluted 5,000 times in HBSS and used in experiments. […] The fluorescent ligand solutions of different concentrations in HBSS were premixed with the isoprenaline solution. 50 µL of a final solution was added to each well and the measurement was started upon addition and continued for 1 h in 10 min intervals between the readouts (inclusive).
(§2) The ligands were added using an automated pipette to initiate the sensor response. FRET readout from the cAMP sensor was performed on a multiwell plate reader Spark 20 M (Tecan) at room temperature (25 °C). Fluorescence readout amplitudes were calculated from time series for different ligand concentrations, following background subtraction (media only). […] Data were derived from 3 independent experiments and each independent experiment was performed in triplicate.
(§3) Sensor response R(CFP/FRET) was calculated using (1):1 R(CFP/FRET)=(FimTurquoise−FbkgmTurquoise)/(FiFRET−FbkgFRET) where F i ^mTurquoise – mTurquoise fluorescence intensity in the wells with cells; F bkg ^mTurquoise - mTurquoise fluorescence intensity in the control wells without cells; F i ^FRET – FRET signal intensity in the wells with cells; F bkg ^FRET – FRET signal intensity in the control wells without cells. For every result, R(CFP/FRET) ratio was normalized to the R(CFP/FRET) response of DMSO sample.

[5] = Fluorescence increase upon addition of SDS to probe solutions; format: physicochemical; conditions: addition of 0.1% SDS to ligand in PBS pH 7.4 with 1 mg/ml BSA; mean ± SD, n=3
Description: Fluorescence spectra of 1 µM solution of fluorescent dyes and ligands in PBS pH 7.4, PBS pH 7.4 + 1 mg/ml BSA (Sigma) and with or without 0.1% SDS (Acros Organics) were recorded on a multiwell plate reader Spark 20 M (Tecan) in half-area black 96-well plates (Greiner Bio-One, cat. 675076) at room temperature (25 °C) after 2 h incubation. Fluorescence emission was recorded from 600 nm to 800 nm with excitation at 580 nm. The emission bandwidth for all measurements was set to 5 nm. The spectra were averaged from 3 individual experiments. Ratios F(BSA+SDS)/F(BSA) of fluorescence signals at 635 nm for 610CP, 645 nm for BODIPY 630/650-X and 655 nm for KK114 conjugates were calculated. The obtained results are summarized (Table 1 and Supplementary Fig. 7).

β2AR-YFP fusion protein [6] = target: T2, β2AR-YFP fusion protein; assay: Confocal imaging of living U2OS cells expressing β2AR-YFP (staining, internalization, competitive displacement, no-wash); format: cell-based; conditions: 90 min, 100 nM carazolol-KK114 (24), 5 nM ab118171, no washing
β2AR [7] = target: T1, β2AR; assay: cAMP FRET sensor assay, competitive displacement of isoprenaline by antagonists in HEK293 cells; format: cell-based
Description: as §1, with “experiments. In the antagonist inhibition experiment, we used β1 and β2 adrenoceptor agonist isoprenaline (abcr GmbH) as a positive control causing cAMP elevation.” for “experiments.”
as §2, §3
K i ^app were calculated using the Cheng-Prusoff equation (2):2 Kiapp=IC50/[A]/EC50+1 where [A] – concentration of the isoprenaline; IC50 – fitted half maximal inhibitory concentration of labeled antagonist; EC50 – fitted half maximal response concentration of isoprenaline.

β1- and β2-adrenoceptors = system: β1- and β2-adrenoceptors; set-up: method as in PMID 19875286; conditions: racemic BI-167107; cited from earlier work
[8] = U2OS β2AR-YFP, 40 min, room temperature, washed

T2 sequence (P07550 whole entry, the tested form may be a part): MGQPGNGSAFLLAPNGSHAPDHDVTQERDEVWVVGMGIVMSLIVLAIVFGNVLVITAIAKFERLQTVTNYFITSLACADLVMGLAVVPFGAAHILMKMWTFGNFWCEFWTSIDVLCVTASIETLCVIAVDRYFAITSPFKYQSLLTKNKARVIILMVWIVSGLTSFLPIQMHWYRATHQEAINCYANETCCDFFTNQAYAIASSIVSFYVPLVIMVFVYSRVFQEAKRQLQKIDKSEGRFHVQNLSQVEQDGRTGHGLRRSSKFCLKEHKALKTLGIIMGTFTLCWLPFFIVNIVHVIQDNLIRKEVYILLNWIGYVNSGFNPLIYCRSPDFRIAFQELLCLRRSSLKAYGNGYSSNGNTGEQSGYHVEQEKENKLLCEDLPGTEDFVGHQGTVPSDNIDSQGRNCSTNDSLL
T1 sequence (P07550 whole entry): as the sequence (P07550 whole entry, the tested form may be a part) above

Row | fluorescence decrease ([1]; at pH 4.7 and 8.0 versus pH 6.0–7.0) | Receptor internalization (β2AR-YFP fusion protein [3]) | Staining performance (β2AR-YFP fusion protein [3]) | Competitive displacement (β2AR-YFP fusion protein [3]; U2OS β2AR-YFP, 100 nM probe (5 nM ab118171) with 10 µM unlabeled BI-167107 or carazolol, 30 min) | confocal staining at 100 nM (β2AR-YFP fusion protein [3]; [8]) | confocal staining at 250 nM (β2AR-YFP fusion protein [3]; [8]) | EC50 (β2AR [4]) | Fluorescence increase (F BSA+SDS / F BSA) [5] | EC50 (mean ± SD, nM) (β2AR [4]) | fluorescence reduction ([1]; pH 7.0 compared to pH 4.7) | no-wash imaging staining (β2AR-YFP fusion protein [6]) | confocal staining at 5 nM (β2AR-YFP fusion protein [3]; U2OS β2AR-YFP, 5 nM, 40 min, room temperature, washed) | IC50 (β2AR [7]; displacement of 17 nM isoprenaline, readout immediately after addition of ligands (0 min), read-out: IC50 (mean ± SD)) | Ki (β2AR [7]; read-out: Ki app (mean ± SD)) | Compound | competitive binding with excess unlabeled ligand (β2AR [2]) | agonist classification at β-adrenoceptors (β1- and β2-adrenoceptors)
1 | about 40% | Yes | Strong | Low background fluorescence | labelled the cells efficiently | unspecific fluorescence | 200 pM and 180 pM | 10.5±1.7 |  |  |  |  |  |  | Cc1c(CCC(=O)NCCOCCOCCNC(=O)CCCCCNC(=O)COc2ccc(/C=C/C3=[N+]4C(=Cc5ccc(-c6cccs6)n5[B-]4(F)F)C=C3)cc2)cccc1CC(C)(C)NCC(O)c1ccc(O)c2c1OCC(=O)N2 (stereo not drawn) [BI-PEG-BDY630 (17)] | strong off-target staining | 
2 |  |  | None |  |  |  | 600 pM and 620 pM | 1.2±0.3 | low nanomolar |  |  |  |  |  | Cc1c(CCC(=O)NCCOCCOCCNC(=O)c2ccc(C(=O)[O-])c(C3=C4C=CC(=[N+](C)C)C=C4C(C)(C)c4cc(N(C)C)ccc43)c2)cccc1CC(C)(C)NCC(O)c1ccc(O)c2c1OCC(=O)N2 (stereo not drawn) [BI-PEG-610CP (19)] |  | 
3 |  | Weak | Strong |  | non-specific dotted background | non-specific dotted background |  | 8.2±3.9 |  | almost two-fold | strong off-target staining | specific membrane localized fluorescence | 74700 ± 36300 pM | 4800 ± 3600 pM | CC(C)(CCNC(=O)CCOCCOCCNC(=O)COc1ccc(/C=C/C2=[N+]3C(=Cc4ccc(-c5cccs5)n4[B-]3(F)F)C=C2)cc1)NC[C@H](O)COc1cccc2[nH]c3ccccc3c12 [ab118171, reference compound] | not possible to achieve full displacement | 
4 |  |  |  |  |  |  |  |  |  |  |  |  |  |  | Cc1ccccc1CC(C)(C)NCC(O)c1ccc(O)c2c1OCC(=O)N2 (stereo not drawn) [BI-167107] |  | full agonist

Row | Compound | fluorescence decrease ([1]; at pH 4.7 and 8.0 versus pH 6.0–7.0) | Receptor internalization (β2AR-YFP fusion protein [3]) | Staining performance (β2AR-YFP fusion protein [3]) | Competitive displacement (β2AR-YFP fusion protein [3]; U2OS β2AR-YFP, 100 nM probe (5 nM ab118171) with 10 µM unlabeled BI-167107 or carazolol, 30 min) | confocal staining at 100 nM (β2AR-YFP fusion protein [3]; [8]) | confocal staining at 250 nM (β2AR-YFP fusion protein [3]; [8]) | EC50 (β2AR [4]) | Fluorescence increase (F BSA+SDS / F BSA) [5] | EC50 (mean ± SD, nM) (β2AR [4]) | fluorescence reduction ([1]; pH 7.0 compared to pH 4.7) | no-wash imaging staining (β2AR-YFP fusion protein [6]) | confocal staining at 5 nM (β2AR-YFP fusion protein [3]; U2OS β2AR-YFP, 5 nM, 40 min, room temperature, washed) | IC50 (β2AR [7]; displacement of 17 nM isoprenaline, readout immediately after addition of ligands (0 min), read-out: IC50 (mean ± SD)) | Ki (β2AR [7]; read-out: Ki app (mean ± SD)) | competitive binding with excess unlabeled ligand (β2AR [2]) | agonist classification at β-adrenoceptors (β1- and β2-adrenoceptors)
5 | Cc1c(CCC(=O)NCCCCNC(=O)c2ccc(C(=O)[O-])c(C3=C4C=CC(=[N+](C)C)C=C4C(C)(C)c4cc(N(C)C)ccc43)c2)cccc1CC(C)(C)NCC(O)c1ccc(O)c2c1OCC(=O)N2 (stereo not drawn) [BI-4C-610CP (16)] |  | Yes | satisfactory images; also recorded: Medium |  |  |  | 7300 ± 1400 pM | 1.5±0.4 | low nanomolar |  |  |  |  |  |  | 
